# Measurements published in paper PMC7812938, “Dehydrobufotenin extracted from the Amazonian toad Rhinella marina (Anura: Bufonidae) as a prototype molecule for the development of antiplasmodial drugs” (The Journal of Venomous Animals and Toxins Including …, 2021).
# Read-outs that look alike come from different tables or passages of the source.
# What was measured:
# [1] = test system: WI-26VA4 human pulmonary fibroblast cells; assay: In vitro cytotoxicity, MTT assay; format: cell-based; conditions: for SI (selectivity index): SI = LD50 Cell / IC50 P. falciparum, WI-26VA4 vs W2; for LD50 ± SD (lethal drug concentration that reduced WI-26VA4 cells viability in 50%): WI-26VA4 human pulmonary fibroblast cells, MTT, 24 hours, mean and SD of triplicate experiments
# Description: The cells were washed with culture medium, trypsinized, distributed in a flat-bottomed 96-well plate (5×10^3 cells/well), and incubated for 18 hours at 37 °C for cell adherence. The compounds (20 μL) were diluted in different concentrations ranging from 0.2 - 200 μg/mL and incubated with the cells for 24 hours in a 5% CO2 atmosphere at 37 °C.
# A 3-(4,5-dimethylthiazol-2-yl)-2,5-diphenyltetrazolium bromide (MTT) solution (5 mg/mL; 20 μL/well) was added to evaluate mitochondrial viability; after a further 3 hours incubation, the supernatants were carefully removed, 100 μL of DMSO was added to each well, and the reactions were mixed to solubilize the formazan crystals. […] The cell viability was expressed as a percentage of the control absorbance in the untreated cells after subtracting the appropriate background.
# A selectivity index (SI) corresponding to the ratio between the cytotoxic and antiplasmodial activities of each compound tested. The values greater than 10 were considered indicative of lack of toxicity, whereas the substances with values below 10 were considered toxic. The SI index was calculated as follow:
# SI=LD50 Cell/IC50 P.falciparum
# (§1) The coefficients of regression of these curves were calculated using the method of least squares. The LD50 were determined based on the equation of the curve obtained by plotting the % of cellular death versus the concentration of compound (GraphPad Prism Software, version 5.0 for Windows, San Diego, California, USA). The average IC50 and LD50 were compared using ANOVA. Statistical significance was defined at the 5% level (P<0.05).
# [2] = test system: P. falciparum W2 strain (chloroquine resistant); assay: In vitro antiplasmodial activity; format: cell-based, Plasmodium falciparum; conditions: read-out: IC50 ± SD (drug concentration that reduced parasite viability in 50%)
# Source text: P. falciparum continuous culture was maintained as previously described with minor modifications. […] The parasites at early stages were synchronized at ring stage by sorbitol treatment. Initial parasitemia was adjusted to 0.5% with 2% hematocrit in all experiments.
# In vitro antiplasmodial activity of the bufadienolides (compounds dehydrobufotenin, marinobufotoxin, marinobufagin and bufalin) was done in 96 well plates. The growth inhibition of intraerythrocytic forms and parasite morphology in culture was assessed by microscopic observation of the Giemsa-stained thin blood films. Ring stage parasites (0.5% parasitemia and 2% hematocrit) were added to each well of 96-well microculture plates. The compounds (dehydrobufotenin, marinobufotoxin, marinobufagin and bufalin) were dissolved in DMSO and diluted to concentrations ranging from 0.78 to 100 μg/mL using complete medium and stored a 4 °C. After incubation at 37 °C for 48 hours, P. falciparum growth inhibition was assessed in Giemsa-stained smears by observing 5,000 erythrocytes per 1 thin blood film in triplicate. The culture medium was replaced with fresh medium with or without test samples/control drugs. […] All experiments were performed in triplicate.
# as §1
# [3] = Plasmodium falciparum, W2, 48 h
Compound,SI (selectivity index) [1],LD50 ± SD (lethal drug concentration that reduced WI-26VA4 cells viability in 50%) [1],LD50 ± SD (lethal drug concentration that reduced WI-26VA4 cells viability in 50%) ([1]; listed as bufalin),"IC50 ([2]; P. falciparum W2 (chloroquine-resistant), 48 hours, Giemsa-stained smears, mean and SD of triplicate experiments)","IC50 [2, 3]",SI (selectivity index) ([1]; listed as dehydrobufotenin),LD50 ± SD (lethal drug concentration that reduced WI-26VA4 cells viability in 50%) ([1]; listed as dehydrobufotenin),LD50 ± SD (lethal drug concentration that reduced WI-26VA4 cells viability in 50%) ([1]; listed as marinobufagin),LD50 ± SD (lethal drug concentration that reduced WI-26VA4 cells viability in 50%) ([1]; listed as marinobufotoxin)
C[C@]12CC[C@H](O)C[C@H]1CC[C@@H]1[C@@H]2CC[C@]2(C)[C@@H](c3ccc(=O)oc3)CC[C@]12O [Bufalin],7.52,25.9 ± 7.04 µM,25.9 µM,3.44 ± 0.43 µM,–,–,–,–,–
"CCN(CC)CCCC(C)Nc1ccnc2cc(Cl)ccc12 (stereo not drawn) [Chloroquine (CQ), Chloroquine, reference compound]",–,–,–,–,1.04 ± 0.21 µM,–,–,–,–
"C[N+]1(C)CCc2c[nH]c3ccc(O)c1c23 [Dehydrobufotenine, Dehydrobufotenin]",12.33,235.76 ± 4.03 µM,–,–,19.1 ± 0.2 µM,> 10,235.76 µM,–,–
CC12CCC(O)CC1(O)CCC1C2CCC2(C)C(c3ccc(=O)oc3)CC3OC312 (stereo not drawn) [Marinobufagin],0.78,3.04 ± 0.25 µM,–,–,3.89 ± 0.42 µM,–,–,3.04 µM,–
"CC12CCC(OC(=O)CCCCCCC(=O)NC(CCCNC(=N)N)C(=O)O)CC1(O)CCC1C2CCC2(C)C(c3ccc(=O)oc3)CC3OC312 (stereo not drawn) [Marinobufotoxin, 3-(N-suberoylargininyl) marinobufagin]",1.67,8.89 ± 2.66 µM,–,–,5.31 ± 0.25 µM,–,–,–,8.89 µM
